In ChEMBL document CHEMBL1201862, “PubChem BioAssay data set” (2004):
The source made the active and inactive calls.

Experiments:
Cytochrome P450 2C9 = Cytochrome P450 2C9 (Homo sapiens, UniProt P11712); conditions: Potency
[1] = target: Acyl-homoserine lactone acylase PvdQ (Pseudomonas aeruginosa (strain LESB58), UniProt Q9I194); assay: PvdQ acylase enzyme activity blockers – biochemical, fluorescence, plate reader and imaging, cherry-picks, dose response (AID 493231)
Aspartyl aminopeptidase = target: T1, Aspartyl aminopeptidase (Plasmodium falciparum 3D7, UniProt Q8I2J3)
T1 sequence (Q8I2J3 whole entry): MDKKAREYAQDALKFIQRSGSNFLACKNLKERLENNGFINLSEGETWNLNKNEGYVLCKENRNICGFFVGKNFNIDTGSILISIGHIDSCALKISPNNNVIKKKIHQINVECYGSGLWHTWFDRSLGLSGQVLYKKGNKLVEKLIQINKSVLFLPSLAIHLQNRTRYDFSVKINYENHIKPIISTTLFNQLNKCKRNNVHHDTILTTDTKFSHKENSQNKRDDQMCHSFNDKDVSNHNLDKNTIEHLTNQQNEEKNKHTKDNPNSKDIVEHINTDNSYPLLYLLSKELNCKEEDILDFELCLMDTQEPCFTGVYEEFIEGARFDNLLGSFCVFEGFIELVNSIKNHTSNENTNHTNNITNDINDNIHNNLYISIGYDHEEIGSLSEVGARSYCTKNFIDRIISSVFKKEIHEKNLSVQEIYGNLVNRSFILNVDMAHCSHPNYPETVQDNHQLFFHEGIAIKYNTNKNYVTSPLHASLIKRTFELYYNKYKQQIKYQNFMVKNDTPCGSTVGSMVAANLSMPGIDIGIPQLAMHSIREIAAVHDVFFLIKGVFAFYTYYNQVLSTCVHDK

Procathepsin L = Procathepsin L (Homo sapiens, UniProt P07711)
[2] = target: Lysosomal acid glucosylceramidase (Homo sapiens, UniProt P04062); assay: Dose response cell-based high throughput screening assay to identify enhancers of beta-glucosidase activity. [Related pubchem assays: 784 ]; format: functional
[3] = luciferase reporter signal suppression in cells – H4 neuroglioma cells, luminescence, dose response (AID 1990); format: functional, cell-based
[4] = luciferase reporter signal reduction – luminescence, H4-C neuroglioblastoma cells, dose response (AID 2458); format: functional, cell-based;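 also: H4 neuroglioblastoma cells stably carrying a luciferase reporter gene fusion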
cells [5] = format: functional, cell-based
[6] = Luminescence Cell-Based Dose Response HTS to Identify Inhibitors of 5'UTR Stem-Loop Driven Prion Protein mRNA Translation in H4 Neuroglioblastoma Cells. [Related pubchem assays: 1827 (Project Summary), 1813 (Primary HTS)]; format: functional
[7] = alpha-synuclein stem-loop luciferase translation blockers – H4 neuroglioma cells, luminescence, confirmation (AID 1988); format: functional, cell-based
[8] = alpha-synuclein stem-loop translation blockers – luminescence, H4 neuroglioblastoma cells, dose confirmation, confirmation (AID 2454); format: functional, cell-based;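 also: H4 neuroglioblastoma cells carrying an alpha-synuclein 5'UTR luciferase reporter; potency for inhibition of the luciferase signal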
cells [9] = format: functional, cell-based; remark: listed apart in the source
[10] = target: T2, Nuclear receptor subfamily 0 group B member 1 (Homo sapiens, UniProt P51843); format: functional, cell-based;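 also: HEK293T cells transfected with SF-1 and DAX-1 plus StAR promoter luciferase reporter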
T2 sequence (P51843 whole entry): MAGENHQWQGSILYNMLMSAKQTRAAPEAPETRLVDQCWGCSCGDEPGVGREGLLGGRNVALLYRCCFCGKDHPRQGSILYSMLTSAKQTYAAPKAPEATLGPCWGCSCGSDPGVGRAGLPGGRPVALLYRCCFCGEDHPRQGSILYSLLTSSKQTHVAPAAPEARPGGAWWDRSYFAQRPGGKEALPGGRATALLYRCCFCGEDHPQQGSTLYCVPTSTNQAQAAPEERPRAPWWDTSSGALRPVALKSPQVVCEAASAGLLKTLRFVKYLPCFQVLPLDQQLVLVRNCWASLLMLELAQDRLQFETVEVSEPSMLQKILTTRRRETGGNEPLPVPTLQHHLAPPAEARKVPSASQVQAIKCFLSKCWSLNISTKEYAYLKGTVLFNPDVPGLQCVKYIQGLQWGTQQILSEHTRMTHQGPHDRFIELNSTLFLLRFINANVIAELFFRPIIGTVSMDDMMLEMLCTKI

Paired box protein Pax-8 = Paired box protein Pax-8 (Homo sapiens, UniProt Q06710); assay: PAX8 transcriptional activity inhibition in RMG-I – RMG-I cells, luciferase, cherry-pick, dose response (AID 687027); format: functional, cell-based;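 also: luciferase reporter driven by Pax8 target thyroperoxidase promoter measured by SteadyGlo luminescence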
[11] = target: Melanin-concentrating hormone receptor 1 (Homo sapiens, UniProt Q99705); assay: Fluorescence-based counterscreen for antagonists of the G-protein coupled receptor 7 (GPR7): cell-based high throughput dose response assay to identify antagonists of the melanin-concentrating hormone receptor 1 (MCHR1).; format: functional
[12] = target: T3, Short transient receptor potential channel 4 (Mus musculus, UniProt Q9QUQ5); assay: block of DAMGO-driven TRPC4 calcium entry – cell-based, HEK293 TRPC4/mu-opioid, Fluo-4 calcium, dose response (AID 434942); format: functional;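 also: potency of inhibitors blocking the TRPC4 calcium response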
T3 sequence (Q9QUQ5 whole entry): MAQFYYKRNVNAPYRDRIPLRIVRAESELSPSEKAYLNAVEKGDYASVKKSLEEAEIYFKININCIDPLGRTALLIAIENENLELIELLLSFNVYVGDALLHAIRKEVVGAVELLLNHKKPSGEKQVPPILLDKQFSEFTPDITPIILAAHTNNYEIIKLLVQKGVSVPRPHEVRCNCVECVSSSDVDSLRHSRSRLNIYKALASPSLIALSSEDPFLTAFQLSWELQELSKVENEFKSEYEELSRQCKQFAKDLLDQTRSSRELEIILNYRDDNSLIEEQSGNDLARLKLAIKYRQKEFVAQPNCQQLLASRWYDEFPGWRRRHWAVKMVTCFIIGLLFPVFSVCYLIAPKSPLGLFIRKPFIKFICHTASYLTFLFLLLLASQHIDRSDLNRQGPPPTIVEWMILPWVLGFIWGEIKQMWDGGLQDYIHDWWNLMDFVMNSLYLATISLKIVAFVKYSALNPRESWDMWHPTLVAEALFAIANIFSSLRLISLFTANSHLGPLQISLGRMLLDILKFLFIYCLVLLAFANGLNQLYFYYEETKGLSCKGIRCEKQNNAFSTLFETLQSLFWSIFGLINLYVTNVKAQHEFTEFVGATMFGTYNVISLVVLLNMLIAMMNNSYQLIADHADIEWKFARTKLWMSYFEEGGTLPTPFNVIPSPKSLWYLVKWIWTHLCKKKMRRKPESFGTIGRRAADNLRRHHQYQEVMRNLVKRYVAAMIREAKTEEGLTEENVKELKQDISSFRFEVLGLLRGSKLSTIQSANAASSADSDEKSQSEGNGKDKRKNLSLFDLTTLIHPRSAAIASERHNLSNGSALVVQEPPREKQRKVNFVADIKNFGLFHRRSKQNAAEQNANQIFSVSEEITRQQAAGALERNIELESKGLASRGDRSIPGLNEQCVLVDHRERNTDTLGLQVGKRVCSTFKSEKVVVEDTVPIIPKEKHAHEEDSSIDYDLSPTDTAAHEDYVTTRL

Cytochrome P450 2C19 = Cytochrome P450 2C19 (Homo sapiens, UniProt P33261); assay: qHTS Assay for Inhibitors and Substrates of Cytochrome P450 2C19. [Related pubchem assays: 410 ]; format: ADME; conditions: read-out: Potency
[13] = target: Neurotensin receptor type 1 (Homo sapiens, UniProt P30989); format: functional;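 also: Image-based confirmatory dose-response assay measuring agonist activity at NTR1; NTR1-expressing U2OS osteosarcoma cells imaged for beta-arrestin GFP spot formation; agonist potency where compounds increase beta-arrestin recruitment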
[14] = target: T4, Low molecular weight phosphotyrosine protein phosphatase (Homo sapiens, UniProt P24666); format: functional; conditions: read-out: IC50_Mean;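 also: Dose-response confirmation assay measuring inhibition of LMPTP enzyme activity by fluorescence intensity read-out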
T4 sequence (P24666 whole entry): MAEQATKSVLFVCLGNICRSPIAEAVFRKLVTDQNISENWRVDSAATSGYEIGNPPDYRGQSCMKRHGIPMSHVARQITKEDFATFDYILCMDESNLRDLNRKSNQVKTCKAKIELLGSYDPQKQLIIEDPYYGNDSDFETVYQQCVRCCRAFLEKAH

Large T antigen = Large T antigen (Simian virus 40, UniProt P03070); format: functional, Betapolyomavirus macacae;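 also: Confirmatory-stage PubChem screen for compounds that inhibit SV40 T antigen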
Hexokinase = Hexokinase (Trypanosoma brucei, UniProt Q38C41); assay: Confirmation assay for inhibitors of Trypanosoma brucei hexokinase 1-Analogue-first series. [Related pubchem assays (depositor defined):AID1430, AID1632, AID2516, AID2560, AID2579, AID2600, AID449725, AID492951]; format: functional
[15] = Luminescence Cell-Based Dose Retest to Confirm Inhibitors of Cancer Stem Cells. [Related pubchem assays (depositor defined):AID2717, AID2721]; format: functional; conditions: Homo sapiens
[16] = target: T5, Microphthalmia-associated transcription factor (Homo sapiens, UniProt O75030); assay: reducers of TRPM1 reporter luminescence, concentration series – cell-based, SK-MEL-5, cherry-picked, set 3, MITF inhibitor project, dose response (AID 493073); format: functional;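 also: SK-MEL-5 melanoma cells with luciferase driven by the MITF target TRPM1 promoter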
T5 sequence (O75030 whole entry): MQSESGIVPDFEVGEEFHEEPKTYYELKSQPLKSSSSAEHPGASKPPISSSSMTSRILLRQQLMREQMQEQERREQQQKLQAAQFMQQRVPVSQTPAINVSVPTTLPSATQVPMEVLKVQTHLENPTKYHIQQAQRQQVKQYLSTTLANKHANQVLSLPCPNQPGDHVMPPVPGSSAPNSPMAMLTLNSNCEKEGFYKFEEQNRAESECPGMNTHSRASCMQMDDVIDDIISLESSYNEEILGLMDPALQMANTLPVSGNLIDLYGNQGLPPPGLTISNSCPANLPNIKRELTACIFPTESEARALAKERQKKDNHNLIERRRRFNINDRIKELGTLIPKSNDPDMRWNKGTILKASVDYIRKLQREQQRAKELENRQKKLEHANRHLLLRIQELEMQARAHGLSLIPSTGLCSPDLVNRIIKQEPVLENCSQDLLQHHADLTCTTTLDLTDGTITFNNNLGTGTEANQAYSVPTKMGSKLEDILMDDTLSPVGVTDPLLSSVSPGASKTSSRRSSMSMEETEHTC

Chain of Hexokinase (Q38C41 whole entry): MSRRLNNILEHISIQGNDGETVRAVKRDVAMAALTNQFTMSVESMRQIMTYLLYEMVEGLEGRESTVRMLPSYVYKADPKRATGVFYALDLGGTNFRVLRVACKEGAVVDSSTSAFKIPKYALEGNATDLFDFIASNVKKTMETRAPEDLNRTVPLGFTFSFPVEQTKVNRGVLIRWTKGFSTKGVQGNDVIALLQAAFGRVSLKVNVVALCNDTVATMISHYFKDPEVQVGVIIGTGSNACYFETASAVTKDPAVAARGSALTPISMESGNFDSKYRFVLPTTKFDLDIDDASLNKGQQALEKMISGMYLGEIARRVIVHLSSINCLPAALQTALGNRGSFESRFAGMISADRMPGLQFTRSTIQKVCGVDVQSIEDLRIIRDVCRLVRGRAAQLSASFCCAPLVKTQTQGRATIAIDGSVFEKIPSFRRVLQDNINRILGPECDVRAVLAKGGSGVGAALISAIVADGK
Chain of Melanin-concentrating hormone receptor 1 (Q99705 whole entry): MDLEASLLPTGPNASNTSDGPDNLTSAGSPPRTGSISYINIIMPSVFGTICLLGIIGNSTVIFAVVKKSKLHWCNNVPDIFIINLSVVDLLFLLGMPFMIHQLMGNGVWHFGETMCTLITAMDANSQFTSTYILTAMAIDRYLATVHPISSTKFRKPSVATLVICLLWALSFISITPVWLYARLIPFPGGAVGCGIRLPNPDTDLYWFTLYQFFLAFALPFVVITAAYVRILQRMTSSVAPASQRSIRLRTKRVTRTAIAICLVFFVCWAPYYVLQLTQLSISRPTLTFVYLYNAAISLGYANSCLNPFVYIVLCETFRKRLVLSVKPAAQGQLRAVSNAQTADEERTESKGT
Chain of Procathepsin L (P07711 whole entry): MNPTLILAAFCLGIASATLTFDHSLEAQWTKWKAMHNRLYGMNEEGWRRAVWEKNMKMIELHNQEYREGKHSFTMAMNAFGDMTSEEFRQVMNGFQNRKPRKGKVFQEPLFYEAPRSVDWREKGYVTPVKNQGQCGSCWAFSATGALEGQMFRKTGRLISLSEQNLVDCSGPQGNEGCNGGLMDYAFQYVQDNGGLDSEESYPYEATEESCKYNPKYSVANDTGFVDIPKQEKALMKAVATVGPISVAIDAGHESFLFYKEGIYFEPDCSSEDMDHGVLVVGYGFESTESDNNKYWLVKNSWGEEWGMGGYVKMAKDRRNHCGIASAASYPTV
Chain of Lysosomal acid glucosylceramidase (P04062 whole entry): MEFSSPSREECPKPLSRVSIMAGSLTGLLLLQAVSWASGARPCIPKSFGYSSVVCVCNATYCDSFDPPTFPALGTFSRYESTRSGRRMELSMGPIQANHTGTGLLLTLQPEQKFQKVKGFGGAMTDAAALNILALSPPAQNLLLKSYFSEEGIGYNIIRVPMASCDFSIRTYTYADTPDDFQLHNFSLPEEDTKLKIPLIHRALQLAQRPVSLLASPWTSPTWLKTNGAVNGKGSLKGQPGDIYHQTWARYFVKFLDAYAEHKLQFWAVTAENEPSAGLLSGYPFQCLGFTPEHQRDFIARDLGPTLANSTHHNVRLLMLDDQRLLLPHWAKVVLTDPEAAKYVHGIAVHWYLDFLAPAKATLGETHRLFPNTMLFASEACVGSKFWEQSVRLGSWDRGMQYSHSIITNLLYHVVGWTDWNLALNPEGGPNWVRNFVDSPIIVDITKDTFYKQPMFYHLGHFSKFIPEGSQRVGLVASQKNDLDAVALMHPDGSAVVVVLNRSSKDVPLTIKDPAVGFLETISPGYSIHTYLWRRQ
Chain of Neurotensin receptor type 1 (P30989 whole entry): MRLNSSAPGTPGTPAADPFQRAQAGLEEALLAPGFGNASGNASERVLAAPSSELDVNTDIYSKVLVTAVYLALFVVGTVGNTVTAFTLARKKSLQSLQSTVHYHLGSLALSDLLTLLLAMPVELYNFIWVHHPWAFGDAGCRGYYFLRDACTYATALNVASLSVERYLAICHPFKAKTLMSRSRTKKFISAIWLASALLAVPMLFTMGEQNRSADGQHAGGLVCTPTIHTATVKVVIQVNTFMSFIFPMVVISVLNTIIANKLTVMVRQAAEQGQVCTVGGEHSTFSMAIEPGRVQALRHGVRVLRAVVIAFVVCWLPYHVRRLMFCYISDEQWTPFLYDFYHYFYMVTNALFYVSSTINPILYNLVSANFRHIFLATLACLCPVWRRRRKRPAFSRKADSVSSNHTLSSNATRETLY
Chain of Acyl-homoserine lactone acylase PvdQ (Q9I194 24-193 limits assumed): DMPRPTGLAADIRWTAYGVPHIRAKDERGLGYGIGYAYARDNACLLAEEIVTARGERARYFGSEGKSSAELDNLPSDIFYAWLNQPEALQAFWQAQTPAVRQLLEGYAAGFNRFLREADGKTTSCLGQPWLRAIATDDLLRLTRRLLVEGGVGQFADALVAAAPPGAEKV
Chain of Acyl-homoserine lactone acylase PvdQ (Q9I194 217-762 limits assumed): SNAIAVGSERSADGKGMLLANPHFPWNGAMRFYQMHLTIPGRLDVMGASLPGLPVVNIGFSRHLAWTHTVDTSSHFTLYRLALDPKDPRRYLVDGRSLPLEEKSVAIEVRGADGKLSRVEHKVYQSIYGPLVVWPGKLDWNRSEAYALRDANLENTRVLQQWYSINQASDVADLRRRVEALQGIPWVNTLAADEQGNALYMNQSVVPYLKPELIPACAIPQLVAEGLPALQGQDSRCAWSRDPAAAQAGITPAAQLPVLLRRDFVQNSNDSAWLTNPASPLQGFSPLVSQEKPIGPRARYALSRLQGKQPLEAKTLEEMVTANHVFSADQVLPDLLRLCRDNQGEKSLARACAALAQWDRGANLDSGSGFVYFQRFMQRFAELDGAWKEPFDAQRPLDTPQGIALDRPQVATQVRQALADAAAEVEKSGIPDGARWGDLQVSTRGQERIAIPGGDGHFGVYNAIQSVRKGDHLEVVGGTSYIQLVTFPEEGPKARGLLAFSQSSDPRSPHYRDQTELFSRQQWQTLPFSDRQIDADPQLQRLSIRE
Chain of Cytochrome P450 2C9 (P11712 whole entry): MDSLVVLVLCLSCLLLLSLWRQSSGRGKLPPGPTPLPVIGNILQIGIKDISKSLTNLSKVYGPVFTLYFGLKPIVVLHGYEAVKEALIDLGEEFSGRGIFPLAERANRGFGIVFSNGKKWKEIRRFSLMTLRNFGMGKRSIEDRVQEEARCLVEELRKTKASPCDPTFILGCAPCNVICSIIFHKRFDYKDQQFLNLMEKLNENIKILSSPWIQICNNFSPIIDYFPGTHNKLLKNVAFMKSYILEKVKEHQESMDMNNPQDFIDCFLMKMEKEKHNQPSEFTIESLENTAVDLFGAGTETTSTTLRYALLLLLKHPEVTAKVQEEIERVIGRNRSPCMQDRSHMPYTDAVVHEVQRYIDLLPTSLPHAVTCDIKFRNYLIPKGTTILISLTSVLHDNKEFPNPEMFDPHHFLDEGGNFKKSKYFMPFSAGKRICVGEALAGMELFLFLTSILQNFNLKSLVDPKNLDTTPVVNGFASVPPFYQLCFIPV
Chain of Large T antigen (P03070 whole entry): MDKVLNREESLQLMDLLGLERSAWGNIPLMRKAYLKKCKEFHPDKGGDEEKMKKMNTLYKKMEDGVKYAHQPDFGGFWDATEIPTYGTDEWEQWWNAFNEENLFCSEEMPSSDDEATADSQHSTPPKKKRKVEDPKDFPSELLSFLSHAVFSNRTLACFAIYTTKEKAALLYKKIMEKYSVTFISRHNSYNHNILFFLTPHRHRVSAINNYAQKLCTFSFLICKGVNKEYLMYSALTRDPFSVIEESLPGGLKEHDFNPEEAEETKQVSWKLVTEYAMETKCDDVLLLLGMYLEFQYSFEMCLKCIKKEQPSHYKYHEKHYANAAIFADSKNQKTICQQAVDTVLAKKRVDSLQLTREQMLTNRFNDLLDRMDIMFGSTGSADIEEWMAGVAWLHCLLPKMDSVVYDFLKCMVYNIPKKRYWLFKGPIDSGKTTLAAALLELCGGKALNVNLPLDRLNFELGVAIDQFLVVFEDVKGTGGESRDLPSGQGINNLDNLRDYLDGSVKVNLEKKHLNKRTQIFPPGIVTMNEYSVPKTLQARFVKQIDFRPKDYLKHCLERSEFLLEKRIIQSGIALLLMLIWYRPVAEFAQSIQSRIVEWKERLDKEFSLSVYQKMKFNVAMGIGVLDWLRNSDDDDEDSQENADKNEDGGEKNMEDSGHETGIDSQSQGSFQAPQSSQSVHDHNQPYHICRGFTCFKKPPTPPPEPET
Chain of Paired box protein Pax-8 (Q06710 whole entry): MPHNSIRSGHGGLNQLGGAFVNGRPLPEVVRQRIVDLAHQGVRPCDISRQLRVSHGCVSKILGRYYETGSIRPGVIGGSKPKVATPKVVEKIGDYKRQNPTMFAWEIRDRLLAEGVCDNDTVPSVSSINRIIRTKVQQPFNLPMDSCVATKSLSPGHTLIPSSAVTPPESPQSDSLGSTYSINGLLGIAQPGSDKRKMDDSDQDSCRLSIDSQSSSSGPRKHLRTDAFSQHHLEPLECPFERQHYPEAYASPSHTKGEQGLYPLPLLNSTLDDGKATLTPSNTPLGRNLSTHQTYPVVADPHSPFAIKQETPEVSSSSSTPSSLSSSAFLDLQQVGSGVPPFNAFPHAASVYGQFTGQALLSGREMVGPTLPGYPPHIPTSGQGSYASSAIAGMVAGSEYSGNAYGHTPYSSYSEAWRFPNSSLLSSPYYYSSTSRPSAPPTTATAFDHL
Chain of Cytochrome P450 2C19 (P33261 whole entry): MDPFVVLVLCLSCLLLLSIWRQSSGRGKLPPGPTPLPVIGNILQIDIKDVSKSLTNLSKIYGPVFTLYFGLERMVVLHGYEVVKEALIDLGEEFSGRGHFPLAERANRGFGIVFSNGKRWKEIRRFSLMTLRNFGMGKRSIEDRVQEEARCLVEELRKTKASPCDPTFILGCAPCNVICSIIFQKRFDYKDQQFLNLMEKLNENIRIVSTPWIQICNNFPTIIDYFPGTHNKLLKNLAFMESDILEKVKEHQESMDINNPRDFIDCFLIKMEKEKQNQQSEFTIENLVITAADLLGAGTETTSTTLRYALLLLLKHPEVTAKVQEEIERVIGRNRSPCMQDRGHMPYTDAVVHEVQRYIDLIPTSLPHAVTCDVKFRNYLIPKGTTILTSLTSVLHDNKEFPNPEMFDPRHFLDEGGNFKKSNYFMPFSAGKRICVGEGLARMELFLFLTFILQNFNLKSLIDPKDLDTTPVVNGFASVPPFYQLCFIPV

With `CCOC(c1cc(OC)cc([N+](=O)[O-])c1OC)C(C)C(OC)[C@@H](C)/C=C/CC(=O)OC` (some centres not stated) the AC50 (Cytochrome P450 2C9) was 2.51 µM (inconclusive).

For `CC(C)Oc1ccc(CC2CCC(=O)N(C)C2=O)cc1` (configuration not stated), the AC50 [1] was 26.2 µM (active).

With `O=C(CSc1nn(-c2ccccc2)c(=S)s1)Nn1cnnc1` the IC50 (Aspartyl aminopeptidase) was 1.61 µM (active) and the IC50 (Procathepsin L) was > 59.6 µM (not active).

For `CCOc1ccccc1C1C(C(=O)Nc2ccccc2OC)=C(C)Nc2nnnn21` (configuration not stated), the EC50 [2] was > 10 µM (not active).

For `O=C(CSc1nnc[nH]1)Nc1nc(-c2ccccc2)ns1`, the IC50 (Aspartyl aminopeptidase) was 0.442 µM (active) and the IC50 (Procathepsin L) was > 59.6 µM (not active).

In the case of `COC(=O)CN1CCN(C(=O)c2ccc(F)cc2)c2ccccc2C1`, the EC50 [2] is reported as > 50 µM (not active).

In the case of `Cc1cc(C)c2nc(SCC(=O)N3CC(=O)Nc4ccccc43)c(C#N)cc2c1`, the EC50 [3] is reported as 0.13 µM (active), the EC50 [4] is reported as 0.665 µM (active) and the EC50 (cells [5]) is reported as > 12 µM (not active). For the same compound, the EC50 [6] was 0.217 µM (active), the EC50 [7] was < 0.1 µM (active) and the EC50 [8] was > 12 µM (inconclusive). For the same compound, the IC50 (cells [9]) was > 67.5 µM (inactive), the IC50 [10] was > 67.5 µM (inactive) and the AC50 (Paired box protein Pax-8) was 1.25 µM (active).

In the case of `COc1ccccc1C1CC(c2ccc(Cl)cc2)N=C2N=CNN21` (configuration not stated), the IC50 [11] is reported as 24.5 µM (not active).

In the case of `CC(C)Cc1nc(N2CCOCC2)c(C#N)c2c1CCC2`, the EC50 [12] is reported as 6.68 µM (active).

For `C=C(C)C(O)/C=C/c1ccc(OC)cc1` (configuration not stated), the AC50 (Cytochrome P450 2C19) was 0.501 µM (inconclusive) and the AC50 (Cytochrome P450 2C9) was 2.51 µM (inconclusive).

For `COc1ccc(-c2csc(N3CCN(c4cc(C)nc5ccccc45)CC3)n2)cc1OC`, the EC50 [13] was 21.4 µM (inactive) and the IC50 [14] was 11.8 µM (active).

For `Cc1cc(C(=O)N2CCC(Cc3ccccc3)CC2)ccc1[N+](=O)[O-]`, the IC50 [11] was 16.6 µM (not active).

With `COc1ccc(-c2ccc(OC(=O)NC3CCS(=O)(=O)C3)cc2)cc1` (configuration not stated) the IC50 (Large T antigen) was 9.45 µM (active) and the AC50 [1] was 30.7 µM (active).

For `O=C(Nc1cc(Cl)ccc1C(=O)O)c1ccccc1`, the IC50 (Hexokinase) was > 25 µM (inactive).

In the case of `O=c1c2cc(F)ccc2sn1-c1ccc(Cl)cc1`, the IC50 (Hexokinase) is reported as 3.01 µM (active).

With `O=C(/C=C\c1ccccc1)NCC(=O)N/N=C/c1ccc(O)cc1O` the AC50 [15] was 11.1 µM (active), the EC50 [13] was 23.1 µM (inactive) and the AC50 [16] was 7.99 µM (active).

In the case of `CCOc1ccc(Br)cc1/C=N/O`, the EC50 [12] is reported as 5.96 µM (active).
